From PubChem BioAssay AID1259411 (Chemical Carcinogenesis Research Information System (CCRIS), 2018)
Calls of active or inactive are those of the source. No rule for the calls is given here.

System: rodent carcinogenicity bioassays, tumor incidence
Test: CCRIS carcinogenicity studies
Settings: Dose: 0, Dose: 0
Method in brief: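 Archive of carcinogenicity, mutagenicity, tumor promotion and tumor inhibition results drawn from journals, NCI reports and other sources, expert-reviewed; covers 1985-2011 and is no longer updated.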

With `COc1ccc(CCN2CCC(Nc3nc4ccccc4n3Cc3ccc(F)cc3)CC2)cc1` the carcinogen call (Species: MOUSE, Strain/Sex: SWISS/FEMALE, Route: ORAL, 2.5, 10, 40 MG/100 G OF DIET FOR DURATION OF STUDY (STUDY DURATION: 18 Mo), 2.5, 10, 40 MG/100 G OF DIET FOR DURATION OF STUDY (STUDY DURATION: 18 Mo)) was “inactive; negative”, the carcinogen call (Species: MOUSE, Strain/Sex: SWISS/MALE, Route: ORAL, 2.5, 10, 40 MG/100 G OF DIET FOR DURATION OF STUDY (STUDY DURATION: 18 MO), 2.5, 10, 40 MG/100 G OF DIET FOR DURATION OF STUDY (STUDY DURATION: 18 MO)) was “inactive; negative” and the carcinogen call (Species: RAT, Strain/Sex: WISTAR/FEMALE, Route: ORAL, 5, 20, 80 MG/100 G OF DIET FOR DURATION OF STUDY (STUDY DURATION: 2 YR), 5, 20, 80 MG/100 G OF DIET FOR DURATION OF STUDY (STUDY DURATION: 2 YR)) was “inactive; negative”. For the same compound, the carcinogen call (Species: RAT, Strain/Sex: WISTAR/MALE, Route: ORAL, 5, 20, 80 MG/100 G OF DIET FOR DURATION OF STUDY (STUDY DURATION: 2 YR), 5, 20, 80 MG/100 G OF DIET FOR DURATION OF STUDY (STUDY DURATION: 2 YR)) was “inactive; negative”.

For `C=CCOCC1CO1` (centres undefined), the carcinogen call (Species: MOUSE, Strain/Sex: B6C3F1/FEMALE, Route: INHALATION, 5, 10 PPM 6 HR/D 5 D/WK FOR 102 WK (STUDY DURATION: 105 WK), 5, 10 PPM 6 HR/D 5 D/WK FOR 102 WK (STUDY DURATION: 105 WK), Tumor Site: Type of Lesion: NOSE (RESPIRATORY EPITHELIUM): ADENOMA) was “equivocal”, the carcinogen call (Species: MOUSE, Strain/Sex: B6C3F1/MALE, Route: INHALATION, 5, 10 PPM 6 HR/D 5 D/WK FOR 102 WK (STUDY DURATION: 105 WK), 5, 10 PPM 6 HR/D 5 D/WK FOR 102 WK (STUDY DURATION: 105 WK), Tumor Site: Type of Lesion: NOSE (RESPIRATORY EPITHELIUM): ADENOMA) was “active; positive” and the carcinogen call (Species: RAT, Strain/Sex: OSBORNE-MENDEL/FEMALE, Route: INHALATION, 5, 10 PPM 6 HR/D 5 D/WK FOR 103 WK (STUDY DURATION: 106 WK), 5, 10 PPM 6 HR/D 5 D/WK FOR 103 WK (STUDY DURATION: 106 WK)) was “inactive; negative”. The carcinogen call (Species: RAT, Strain/Sex: OSBORNE-MENDEL/MALE, Route: INHALATION, 5, 10 PPM 6 HR/D 5 D/WK FOR 103 WK (STUDY DURATION: 106 WK), 5, 10 PPM 6 HR/D 5 D/WK FOR 103 WK (STUDY DURATION: 106 WK), Tumor Site: Type of Lesion: NOSE (RESPIRATORY OR OLFACTORY EPITHELIUM): PAPILLARY ADENOMA, SQUAMOUS CELL CARCINOMA, POORLY DIFFERENTIATED ADENOCARCI) was “equivocal”.

With `Cc1cc(Cl)ccc1OC(C)C(=O)O` (centres undefined) the carcinogen call (Species: Mouse, Strain/Sex: B6C3F1/CrlBR/Female (50/Group), Route: Oral, 25, 250 ppm of 92.7% mecoprop in diet for 18 mo, study duration 18 mo, 25, 250 ppm of 92.7% mecoprop in diet for 18 mo, study duration 18 mo) was “inactive; negative”, the carcinogen call (Species: Mouse, Strain/Sex: B6C3F1/CrlBR/Male (50/Group), Route: Oral, 25, 250 ppm of 92.7% mecoprop in diet for 18 mo, study duration 18 mo, 25, 250 ppm of 92.7% mecoprop in diet for 18 mo, study duration 18 mo, Tumor Site: Type of Lesion: Lung: carcinoma) was “active; positive” and the carcinogen call (Species: Rat, Strain/Sex: Wistar/Female (65/Group), Route: Oral, 20, 100, 400 ppm of 92.7% mecoprop in diet for 24 mo, study duration 24 mo, 20, 100, 400 ppm of 92.7% mecoprop in diet for 24 mo, study duration 24 mo) was “inactive; negative”. The carcinogen call (Species: Rat, Strain/Sex: Wistar/Male (65/Group), Route: Oral, 20, 100, 400 ppm of 92.7% mecoprop in diet for 24 mo, study duration 24 mo, 20, 100, 400 ppm of 92.7% mecoprop in diet for 24 mo, study duration 24 mo) was “inactive; negative”.

In the case of `OC1c2cc3c4c(ccc5cccc(c54)C3)c2C2OC2C1O` (centres undefined), the carcinogen call (Species: MOUSE, Strain/Sex: ICR/FEMALE, Route: INTRAPERITONEAL, 500 NMOL (TOTAL DOSE) ADMINISTERED IN DOSES OF 1/7, 2/7, AND 4/7 ON DAYS 1, 7, AND 15 OF LIFE, RESPECTIVELY (STUDY DU, Tumor Site: Type of Lesion: LUNG: TUMOR) is reported as “active; positive” and the carcinogen call (Species: MOUSE, Strain/Sex: ICR/MALE, Route: INTRAPERITONEAL, 500 NMOL (TOTAL DOSE) ADMINISTERED IN DOSES OF 1/7, 2/7, AND 4/7 ON DAYS 1, 7 AND 15 OF LIFE , RESPECTIVELY (STUDY DU, Tumor Site: Type of Lesion: LUNG: TUMOR, LIVER: TUMOR) is reported as “active; positive”.
